Like-named read-outs stand apart in the source and are kept apart here.
Tests used:
E16 cells = assay: Quantitative determination of metabolites by LC-MS/MS in E16 cells; format: cell-based, human; set-up: dose or concentration left out as unconfirmed; conditions: 24 hours
Description: (§1) Compound 8 was added to GICs (E6, E16) at […] and treated for 24 hours. Cells were washed with a 5% mannitol solution, 70% ice-cold methanol was added, and metabolites were extracted. […] In addition, the amount of orotic acid was decreased in E16 cells.

[1] = tested on: Glioma-initiating cell E6; assay: Cell proliferation test (MTT) on GIC strain E6; format: cell-based; conditions: Homo sapiens, 72 h, MTT after 3 days
Description: (§2) GIC and GICR strain: Cell growth test was performed using E6, E6R, E16, and E16R (Stem Cells. 2016 August; 34(8): 2016-25.).
(§3) Cell culture solutions were obtained by mixing a medium prepared by adding various compounds, bFGF (Peprotech, 100-18B) and EGF (Peprotech, 100-15) to DMEM/Ham's F-12 medium (SIGMA, D8062) and a medium prepared by adding FCS (Hyclone, SH30910.03) to DMEM medium (Nacalai tesque, 08458-45) to a concentration of 10% for use.
(§4) Each compound adjusted to a predetermined concentration was dispensed into a 96-well plate (Falcon, 353072) at 80 μL/well, and E6 cells and E6R cells were seeded on the 96-well plate at 1000 cells/80 μL/well. After 3 days, 10 μL of an MTT reagent (DOJINDO, 341-01823) was added, the cells were incubated at 37° C. for 3 hours, the culture solution was removed, and 100 μL of DMSO was added. The absorbance at 570 nm was measured using Bio-Rad iMark (Bio-Rad, 168-1130JA). The growth inhibition rate at each test compound concentration was calculated by the following formula using the absorbance as an index of the viable cell count.
(§5) The growth inhibition rate at each compound concentration was determined, and the 50% growth inhibition concentration GI50 (μmol/L)] was calculated using XLfit. Growth inhibition rate (%)=(Amount of luminescence from wells supplemented with test compound)/(Amount of luminescence from wells supplemented with DMSO)×100

[2] = tested on: Glioma-initiating cell E16R; assay: Cell proliferation test (MTT) on GICR strain E16R; format: cell-based; conditions: Homo sapiens, 72 h, MTT after 3 days
Description: as §2, §3, §4, §5

E6 cells = assay: Quantitative determination of metabolites by LC-MS/MS in E6 cells; format: cell-based, human; set-up: dose or concentration left out as unconfirmed; conditions: 24 hours, compared to control DMSO-treated group
Description: as §1

recombinant human DHODH = target: T1, recombinant human DHODH (Homo sapiens, UniProt Q02127); assay: DHODH enzyme assay (DCIP quenching); format: biochemical; conditions: pH 8.0, DCIP absorbance 600 nm, 50 minutes; read-out: DHODH enzyme inhibition IC50
T1 construct: DHODH, 31-395aa, Human, His tag, E. coli, ATGP1615; His tag; purchased ATGen ATGP1615; host or cells: E. coli
Description: For DHODH enzyme assay, “Benjamin Bader, Wolfgang Knecht, Markus Fries, and Monika Löffler. Expression, Purification, and Characterization of Histidine-Tagged Rat and Human Flavoenzyme Dihydroorotate Dehydrogenase. Protein Expression and Purification, 1998, 13, 414-422” was referred to.
DHODH activity was evaluated using an enzyme assay system that couples with an assay in a blue-coloring dye 2,6-dichlorophenol indophenol (DCIP, MP BIOMEDICALS, MP150118) quenching assay. Purified recombinant human DHODH (DHODH, 31-395aa, Human, His tag, E. coli, ATGP1615) was purchased from ATGen. […] Enzyme activity was assessed by measuring the decrease in DCIP absorbance (600 nm) for 50 minutes using an Envision plate-reading spectrophotometer (PerkinElmer Co., Ltd.). […]
Enzyme reaction inhibition rate (%)=(Amount of luminescence from wells supplemented with test compound)/(Amount of luminescence from wells supplemented with DMSO)×100

[3] = tested on: GIC strains (E6 cell, E16 cell); assay: Immunostaining of differentiated and undifferentiated markers in GIC strains; format: cell-based, human; conditions: Compound 8 10 μM, E6 and E16 cells, FIG. 1
[4] = tested on: Glioma-initiating cell E16; assay: Cell proliferation test (MTT) on GIC strain E16; format: cell-based; conditions: Homo sapiens, 72 h, MTT after 3 days
Description: as §2, §3, §4, §5

[5] = tested on: Glioma-initiating cell E6R; assay: Cell growth test (MTT) on GICR strain E6R; format: cell-based; conditions: Homo sapiens, 72 h
Description: GICR strain: Cell growth test was performed using E6R (Stem Cells. 2016 August; 34(8):2016-25.).
as §3, §4, §5, §2

T1 sequence (Q02127 31-395): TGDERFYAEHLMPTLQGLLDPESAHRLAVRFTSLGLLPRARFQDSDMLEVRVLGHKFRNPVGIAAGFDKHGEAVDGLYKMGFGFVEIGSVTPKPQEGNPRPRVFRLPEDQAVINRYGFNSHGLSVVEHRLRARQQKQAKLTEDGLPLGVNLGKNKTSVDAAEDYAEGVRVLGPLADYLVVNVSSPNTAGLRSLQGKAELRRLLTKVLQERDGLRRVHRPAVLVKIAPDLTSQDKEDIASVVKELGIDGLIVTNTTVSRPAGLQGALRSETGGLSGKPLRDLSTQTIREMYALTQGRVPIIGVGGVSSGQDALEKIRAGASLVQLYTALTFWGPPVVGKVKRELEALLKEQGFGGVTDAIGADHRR

GI50 ([1]; read-out: GI50 (nmol/L) of Glioma-initiating cell E6): < 7 nmol/L | GI50 ([1]; read-out: GI50 class of Glioma-initiating cell E6): < 1000 nmol/L | GI50 ([2]; read-out: GI50 (nmol/L) of Glioma-initiating cell E16R): 490 nmol/L | GI50 ([2]; read-out: GI50 class of Glioma-initiating cell E16R): < 1000 nmol/L | IC50 (recombinant human DHODH): 8.96 nM | GI50 ([4]; read-out: GI50 (nmol/L) of Glioma-initiating cell E16): 434 nmol/L | GI50 ([4]; read-out: GI50 class of Glioma-initiating cell E16): < 1000 nmol/L | GI50 ([5]; MTT after 3 days, read-out: ER6 GI50): 11.8 nM | GI50 ([5]; class of ER6 GI50, MTT after 3 days, read-out: Evaluation): < 1000 nM
Compound: O=C(O)c1cc(C2CC2)cnc1Nc1ccc2c(ccn2-c2ccccc2)c1 [Compound 8, 5-cyclopropyl-2-((1-phenyl-1H-indole-5-yl)amino)nicotinic acid]
amount of orotic acid in E16 cells (E16 cells): decreased | increase of the amount of DHO in E16 cells (E16 cells; compared to control DMSO-treated group): 125 fold | increase of the amount of DHO in E6 cells (E6 cells): 596 fold | expression of differentiation markers (βIII tubulin, GFAP, GC) [3]: increased | positive rate of neural stem cell markers SOX2 and NESTIN [3]: remarkable decrease
